The source of these data is PubChem BioAssay (NCI).

Common to all, as to assay: inhibition of tumour cell growth, NCI panel, 48 h
The subject of assay [1] is CAKI-1 renal.
Assay [2] has as its system CCRF-CEM leukemia.
The subject of assay [3] is COLO 205 colon.
The subject of assay [4] is HCT-116 colon.
The subject of assay [5] is HS 578T breast.
Assay [6] has as its system MALME-3M melanoma.
Assay [7] deals with RPMI-8226 leukemia.
In assay [8] the test system is SK-OV-3 ovarian.
Assay [9] concerns SNB-75 CNS.
For assay [10], the system named is SW-620 colon.

Where “and” joins values, the source holds several entries; their conditions need not be identical. Equal values may be shown once.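 These data come from cells grown in 96-well plates and exposed to compound for 48 hours at five concentrations. GI50 marks 50% less growth. TGI: concentration producing complete growth inhibition.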

As to `O=c1cc(-c2ccccc2)[nH]n1-c1nc2ccccc2[nH]1`, the GI50 in [1] is 3.42 µM; in [2] it was 1220 nM; in assay [3], 27.8 µM; in assay [4], 3.12 µM; in assay [5] it was 7.47 µM; in assay [6], 17.7 µM. Further, the GI50 in assay [7] is 3.59 µM; in assay [8], 8.58 µM; in [9], 4.66 µM; in assay [10], 4.48 µM. Besides, the TGI in assay [1], in assay [2], in assay [3], in assay [4], in [5] and in [6] was > 100 µM in each case. The TGI in assay [7] was 52.4 µM; in assay [8], > 100 µM; in [9], > 100 µM; in assay [10], > 100 µM.
For the compound `N#CC1=C(N)NC(=O)NC12Nc1ccccc1S2` (configuration not stated), the GI50 was 30.1 µM in [1]; > 42000 nM in [2]; 15.8 µM in assay [3]; 18.5 µM in [4]; 25.5 µM in assay [5]; 4.63 µM in [6]. Further, the GI50 in assay [7] is > 37 µM; in assay [8], 30.3 µM; in [9], 51 µM; in assay [10], 28.8 µM. Further, the TGI in [1] was > 72.6 µM; in assay [2], > 67.6 µM; in assay [3], > 73.1 µM; in [4], 44 µM; in assay [5] it was > 70.4 µM; in assay [6], 42.5 µM. The TGI was > 55.7 µM in assay [7], > 70.7 µM in assay [8], > 100 µM in assay [9] and > 72.6 µM in [10].
On to `COC(=O)C1(F)C(=O)NC(=O)NC1O` (configuration not stated), for which the TGI in [1], in [2], in [3], in assay [4], in assay [5] and in [6] was > 100 µM in each case. The TGI in assay [7], in assay [8], in assay [9] and in assay [10] was > 100 µM throughout.
Consider `Cc1cc(Cc2cc(C)cc(C(C)(C)C)c2O)c(O)c(C(C)(C)C)c1`, for which the GI50 in assay [1] is 2.36 µM; in [2] it was 9980 nM; in assay [3] it was 6.73 µM; in assay [4] it was 3.13 µM; in [5], 11.2 µM; in assay [6], 5.3 µM. Besides, the GI50 is 7.55 µM in assay [7], 11.9 µM in assay [8], 11.9 µM in [9] and 4.47 µM in assay [10]. Besides, the TGI in [1] was 8.03 µM; in assay [2], > 100 µM; in assay [3], 19.6 µM; in [4], 11.7 µM; in [5], 29.2 µM; in [6], 20 µM. For the same compound, the TGI in [7] is 57.2 µM; in assay [8] it was 24.2 µM; in assay [9], 24.3 µM; in [10], 16 µM.
Take `O=c1[nH]cnc2[nH]ncc12`: the GI50 in [1] is 97.2 µM; in assay [2], 360000 nM; in [3], 440 µM; in assay [4] it was 444 µM; in assay [5] it was 2540 µM; in [6] it was 1330 µM. Also, the GI50 is 116 µM in assay [7]; > 85.9 µM and 111 µM in assay [8]; 1180 µM in assay [9]; 356 µM in assay [10]. Further, the TGI in assay [1], in assay [2], in assay [3], in [4], in [5] and in assay [6] was > 5000 µM each time. Further, the TGI was > 5000 µM in assay [7], > 4080 µM in assay [8], > 4110 µM in assay [9] and > 5000 µM in assay [10].
Regarding `CO[C@@H]1/C=C(C)/C=C/[C@@H](C)/C=C(\C)C(=O)OC(/C(C)=C/C=C(\C)CNC(=O)[C@H](CO)NC=O)[C@@H](C)/C=C/C=C/[C@H](OC)CC/C=C(C)/C=C/C1` (some centres not stated), the GI50 in assay [1] is < 0.005 µM; in assay [2], < 5 nM; in assay [3], 0.00816 µM; in assay [4], < 0.005 µM; in [5], < 0.005 µM; in assay [6], 0.0101 µM. Moreover, the GI50 is < 0.005 µM in assay [7], 0.332 µM in assay [8], 0.242 µM in [9] and < 0.005 µM in [10]. Also, the TGI in assay [1] came out at 0.592 µM; in assay [2], 16.5 µM; in assay [3], 0.627 µM; in [4] it was 6.11 µM; in [5], 24.9 µM; in assay [6], 0.0261 µM. The TGI in [7] was 11.8 µM; in assay [8], 9.48 µM; in assay [9] it was > 25.8 µM; in assay [10] it was 13.6 µM.
For `COc1cc2c[n+](C)c3c4ccccc4ccc3c2cc1OC` (tested in a mixture with another compound), the TGI is > 83 µM in assay [1]; > 70.6 µM in [2]; 5.02 µM and 14 µM in assay [3]; 27.2 µM in [4]; 18.4 µM in [5]; 3.25 µM and 14 µM in assay [6]. Besides, the TGI in assay [8] is 51.2 µM; in assay [9] it was 8.49 µM and 15 µM; in assay [10] it was 48 µM. Moreover, the GI50 in assay [2] is 2080 nM; in [3], 1.46 µM; in assay [4], 2.55 µM; in [5] it was 3.35 µM; in [6], 1.28 µM; in assay [7], 1.71 µM. For the same compound, the GI50 was 3.11 µM in [9] and 2.71 µM in assay [10].
For `c1ccc(-n2nnnc2-c2cccc3ccccc23)cc1`, the GI50 in assay [1] is 0.465 µM; in assay [2], 447 nM; in assay [3], 0.49 µM; in [4], 0.401 µM; in assay [5] it was 1.36 µM; in assay [6] it was 0.635 µM. Further, the GI50 in [7] was 0.579 µM; in assay [8] it was 0.908 µM; in assay [9], 1.55 µM; in [10], 0.453 µM. Further, the TGI in [1] was > 100 µM; in assay [2], > 100 µM; in [3], 3.83 µM; in [4] it was 24.5 µM; in assay [5] it was > 100 µM; in [6], > 100 µM. Moreover, the TGI was 45.7 µM in assay [7], 13.5 µM in assay [8], > 27.7 µM in [9] and > 100 µM in [10].
